Laboratory results taken from patent publication US20250032476A1, “ALPHA-2A ADRENERGIC RECEPTOR MODULATORS AND USES THEREOF” (The Regents of the University of California, priority 2021, published 2025).
Where “and” joins values, the source holds several entries; their conditions need not be identical. Equal values may be shown once. Entries after “also recorded” stand apart in the source; their conditions may differ. Where a name gives a salt, the structure may show the parent alone. Read-outs that look alike come from different tables or passages of the source.

Assays:
human α2AAR [1] = target: T1, human α2AAR (Homo sapiens (Human), UniProt P08913); assay: Radioligand competition binding to human α2AAR (HEK293T membranes, [3H]RX82,1002); settings: for Ki: human α2AAR
T1 sequence (P08913 whole entry): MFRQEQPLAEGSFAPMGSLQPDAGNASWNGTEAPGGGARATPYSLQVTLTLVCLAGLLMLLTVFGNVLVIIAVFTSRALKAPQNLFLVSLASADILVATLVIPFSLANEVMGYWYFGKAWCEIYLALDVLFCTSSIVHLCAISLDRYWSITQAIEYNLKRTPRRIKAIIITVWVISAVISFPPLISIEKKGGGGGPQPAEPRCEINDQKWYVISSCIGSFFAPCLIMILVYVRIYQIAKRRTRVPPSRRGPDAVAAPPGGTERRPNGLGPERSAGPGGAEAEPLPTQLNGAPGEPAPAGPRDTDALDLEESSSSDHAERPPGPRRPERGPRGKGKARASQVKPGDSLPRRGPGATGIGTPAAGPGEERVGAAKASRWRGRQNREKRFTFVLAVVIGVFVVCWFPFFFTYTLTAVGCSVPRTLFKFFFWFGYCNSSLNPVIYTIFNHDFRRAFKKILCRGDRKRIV

α2AAR F427^7.39 mutant = α2AAR F427^7.39 mutant (Homo sapiens (Human), UniProt P08913, F427A); assay: Gi activation (BRET) at α2AAR F427^7.39 mutant; type: cell-based
Sequence of α2AAR F427^7.39 mutant (P08913 whole entry F427A): as the sequence (P08913 whole entry) above, with F427A counted along it
Procedure: Investigating the sensitivity of selected ligands to the receptor mutants α2AAR-D128^3.32A, α2AAR-D128^3.32T, α2AAR-D128^3.32L, α2AAR-S215^5.42A, α2AAR-Y409^6.55A, α2AAR-Y409^6.55T, α2AAR-Y409^6.55F, α2AAR-F427^7.39F, α2AAR-Y431^7.43A, and α2AAR-Y431^7.43F was determined by monitored G protein stimulation as described above transfecting the appropriate receptor together with Gαi1-RLucII and Gβ1/Gγ1-GFP10. […] Three to ten experiments were done in duplicate.
The sensitivity of selected ligands to the receptor mutants α2AAR-D128^3.32A, α2AAR-D128^3.32T, α2AAR-D128^3.32L, α2AAR-S215^5.42A, α2AAR-Y409^6.55A, α2AAR-Y409^6.55T, α2AAR-Y409^6.55F, α2AAR-F427^7.39F, α2AAR-Y431^7.43A, and α2AAR-Y431^7.43F was monitored by G protein activation as described above transfecting the appropriate receptor together with Gαi1-RLucII and Gβ1/Gγ2-GFP10. […] Similarly, the effect of the α2AAR-D128^3.32A, α2AAR-S215^5.42A, α2AAR-Y409^6.55A, α2AAR-Y409^6.55F, α2AAR-F427^7.39F, α2AAR-Y431^7.43A, and α2AAR-Y431^7.43F mutations on arrestin recruitment was evaluated as described above transfecting the appropriate receptor together with CAAX-rGFP, GRK2 and β-arrestin-2-RLucII. Data was analyzed as ligand induced changes in BRET compared to vehicle (deltaBRET). Three to seven experiments were done in duplicate.

[2] = Pharmacokinetics in mice (plasma, brain, CSF); type: in vivo
Procedure: Pharmacokinetics. Pharmacokinetic experiments were performed by Bienta (Enamine Biology Services) in accordance with Enamine pharmacokinetic study protocols and Institutional Animal Care and Use Guidelines (protocol number 1-2/2020). […] In each compound study, nine time points (5, 15, 30, 60, 120, 240, 360, 480 and 1440 min) were collected, each of the time point treatment group included 3 animals. There was also a control group of one animal. In the ‘9087, ‘7075, ‘4622 studies, male C57BL/6N mice were used, for PS75 CD-1 mice, and for ‘2998 male Balb/cAnN mice. For all compound studies the animals were randomly assigned to the treatment groups before the pharmacokinetic study; all animals were fasted for 4 h before dosing. For injections, ‘9087 was dissolved in Captisol—water (40%:60%, w/v), ‘4622 was dissolved in a 20% Kolliphor HS—physiological saline solution, and ‘7075, PS75, and ‘2998 were dissolved in a 20% 2-HPBCD—aqueous solution. The batches of working formulations were prepared 10 minutes prior to the in vivo study.
Mice were injected i.p. with 2,2,2-tribromoethanol at 150 mg/kg prior to drawing CSF and blood. CSF was collected under a stereomicroscope from cisterna magna using 1 mL syringes. Blood collection was performed from the orbital sinus in microtainers containing K3EDTA. Animals were sacrificed by cervical dislocation after the blood samples collection. Blood samples were centrifuged 10 min at 3000 rpm. Brain samples (right lobe) were weighed and transferred into 1.5 ml tubes. All samples were immediately processed, flash-frozen and stored at −70° C. until subsequent analysis.
Plasma samples (40 μL) were mixed with 200 μL of internal standard (IS) solution. After mixing by pipetting and centrifuging for 4 min at 6000 rpm, 4 μL of each supernatant was injected into the LC-MS/MS system. Solutions of internal standards were used to quantify compounds in the plasma samples. […] After this, the samples were centrifuged for 4 min at 14,000 rpm, and supernatant was injected into LC-MS/MS system. CSF samples (2 μL) were mixed with 40 μL of an internal stock solution. After mixing by pipetting and centrifuging for 4 min at 6,000 rpm, 5 μL of each supernatant was injected into LC-MS/MS system.
(§1) Analyses of plasma, brain and CSF samples were conducted at Enamine/Bienta. The concentrations of compounds in plasma and brain samples were determined using high performance liquid chromatography/tandem mass spectrometry (HPLC-MS/MS). Data acquisition and system control was performed using Analyst 1.5.2 software (AB Sciex, Canada). […] Pharmacokinetic data analysis was performed using noncompartmental, bolus injection or extravascular input analysis models in WinNonlin 5.2 (PharSight).
Mice were injected i.p. with 2,2,2-tribromoethanol at 150 mg/kg prior to drawing CSF and blood. CSF was collected under a stereomicroscope from cisterna magna using 1 mL syringes. Blood collection was performed from the orbital sinus in microtainers containing K3EDTA. Animals were sacrificed by cervical dislocation after the blood samples collection. Blood samples were centrifuged 10 min at 3000 rpm. Brain samples (right lobe) were weighed and transferred into 1.5 mL tubes. All samples were immediately processed, flash-frozen and stored at −70° C. until subsequent analysis.
as §1
Additional pharmacokinetic experiments were performed by Sai Life Sciences (Hyderabad, India) in accordance with the Sai Study Protocol SAIDMPK/PK-22-04-0340. […] Testing was done in C57BL/6 mice.

human α2AAR [3] = target: T1, human α2AAR; assay: Gαi G protein activation, BRET biosensor assay in HEK293T cells; settings: for Emax: HEK-293T
[4] = target: T2, ALPHA-2A ADRENERGIC RECEPTOR (Homo sapiens (Human), UniProt P08913); assay: Gi recruitment (G protein); type: cell-based
T2 sequence (P08913 whole entry): as the sequence (P08913 whole entry) above

human α2AAR [5] = target: T1, human α2AAR; assay: β-arrestin-2 recruitment, BRET biosensor assay in HEK293T cells; settings: HEK-293T
mice [6] = assay: Rotarod motor test (motor impairment and sedation); type: in vivo
[7] = target: T2, ALPHA-2A ADRENERGIC RECEPTOR; assay: Arrestin recruitment; type: cell-based; settings: Tables 7-9
SNI mice = assay: Spared-nerve injury (SNI) model of neuropathic pain, von Frey mechanical thresholds; type: in vivo; settings: for Effect of atipamezole on the agonist's effect in SNI mice: atipamezole 2 mg/kg, 15 minutes prior
Procedure: Spared-nerve injury (SNI) model of neuropathic pain. Under isoflurane anesthesia, two of the three branches of the sciatic nerve were ligated and transected distally, leaving the sural nerve intact. Behavior was tested 7 to 14 days after injury and in situ hybridization was performed one week post-injury.

CFA mice = assay: Complete Freund's Adjuvant (CFA) inflammatory pain model, Hargreaves test; settings: mouse, in vivo
Procedure: The CFA model of chronic inflammation was induced as described previously (96). Briefly, CFA (Sigma) was diluted 1:1 with saline and vortexed for 30 minutes. When fully suspended, we injected 20 μL of CFA into one hindpaw. Heat thresholds were measured before the injection (baseline) and 3 days after using the Hargreaves test.
The CFA model of chronic inflammation was induced as described previously (100). Briefly, CFA (Sigma) was diluted 1:1 with saline and vortexed for 30 minutes. When fully suspended, we injected 20 μL of CFA into one hindpaw. Heat thresholds were measured before the injection (baseline) and 3 days after using the Hargreaves test.

naïve mice = assay: Mechanical thresholds (von Frey) in naïve (uninjured) mice; settings: mouse, in vivo
human α2AAR [8] = target: T1, human α2AAR; assay: α2AAR internalization assay with rGFP-CAAX and rGFP-FYVE biosensors; type: cell-based; settings: α2AAR-RlucII/rGFP-CAAX biosensor
Procedure: Human α2AAR internalization was evaluated by measuring the disappearance of hα2AAR-RlucII from the plasma membrane labeled with rGFP-CAAX and its relocalization in endosome labeled with rGFP-FYVE (39).
For concentration-response curves, BRET signal was measured after 30 min incubation. Plates were read on a Spark microplate reader (Tecan; Mannedorf, Switzerland) using the BRET2 manufacturer settings.

mice [9] = assay: Tail flick (50° C.) acute thermal pain assay; type: in vivo
analgesia in vivo = settings: result in words, Table 6
[10] = Metabolic stability in male rat liver microsomes; type: in vitro ADME; settings: 1 hour
Procedure: Metabolic stability studies. Metabolic stability of the test compounds was assessed using male pooled rat liver microsomes (Sprague Dawley, Sigma Aldrich) as previously described (93, 94). The reactions were carried out in 2 mL polyethylene tubes on a rotator carousel (Stuart™ SB3) in an incubator at 37° C. […] Transformation reactions were initiated by the addition of 50 μL of cofactor solution (NADPH, Carl Roth, final concentration 1 mM). […] Precipitated protein was removed by centrifugation (1 min, 16,000 rcf) and the supernatants were analysed by HPLC/MS on a Thermo Scientific Dionex Ultimate 3000 HPLC system equipped with a Zorbax Eclipse XDB-C8 column (4.6×150 mm, 5 μm), a DAD detector (210 nm, 230 nm, 254 nm, 310 nm), and a BRUKER amaZon SL mass spectrometer with ESI source. The following binary eluent system (methanol in water+0.1% (v/v) formic acid) was employed: 10% for 1 min, 10% to 100% in 20 min, 100% for 5 min, 100% to 10% in 2 min, 10% for 2 min, flow 0.4 mL/min. […] Control experiments were conducted in the absence of cofactor solution to determine non-specific binding to matrix. The integral (AUC) of the extracted ion chromatograms (EIC) was used to analyze the concentration of the remaining substrates. […]

α2CAR = α2CAR (Homo sapiens (Human), UniProt P18825); assay: Radioligand binding to α2C adrenergic receptor; settings: saturation binding
Sequence of α2CAR (P18825 whole entry): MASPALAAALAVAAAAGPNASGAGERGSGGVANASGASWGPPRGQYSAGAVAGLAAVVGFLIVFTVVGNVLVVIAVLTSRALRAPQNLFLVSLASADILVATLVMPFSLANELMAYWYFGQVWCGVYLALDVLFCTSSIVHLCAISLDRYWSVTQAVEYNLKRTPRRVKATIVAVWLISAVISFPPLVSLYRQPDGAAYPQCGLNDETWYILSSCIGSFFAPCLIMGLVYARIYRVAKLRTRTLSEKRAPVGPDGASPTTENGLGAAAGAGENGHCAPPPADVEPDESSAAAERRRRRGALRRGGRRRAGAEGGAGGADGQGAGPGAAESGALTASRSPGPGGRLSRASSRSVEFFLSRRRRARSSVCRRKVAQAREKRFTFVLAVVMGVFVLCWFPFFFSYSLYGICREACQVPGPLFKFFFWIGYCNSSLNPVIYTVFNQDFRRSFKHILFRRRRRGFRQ

murine α2AAR = murine α2AAR (Mus musculus (Mouse), UniProt Q01338); assay: Radioligand competition binding to murine α2AAR; settings: saturation binding
Sequence of murine α2AAR (Q01338 whole entry): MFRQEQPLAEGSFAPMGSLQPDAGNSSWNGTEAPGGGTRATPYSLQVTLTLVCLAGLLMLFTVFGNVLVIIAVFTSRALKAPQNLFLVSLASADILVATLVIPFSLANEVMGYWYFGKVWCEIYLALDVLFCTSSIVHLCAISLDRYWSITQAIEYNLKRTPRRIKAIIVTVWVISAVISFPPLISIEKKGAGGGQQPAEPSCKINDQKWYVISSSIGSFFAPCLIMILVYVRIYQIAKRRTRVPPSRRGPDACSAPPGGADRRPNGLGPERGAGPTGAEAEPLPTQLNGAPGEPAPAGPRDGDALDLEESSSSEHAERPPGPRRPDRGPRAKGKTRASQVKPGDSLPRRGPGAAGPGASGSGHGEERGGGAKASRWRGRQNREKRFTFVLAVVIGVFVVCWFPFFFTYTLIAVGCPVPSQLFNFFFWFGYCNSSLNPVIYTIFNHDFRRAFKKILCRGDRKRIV

human α2BAR = human α2BAR (Homo sapiens (Human), UniProt P18089); assay: Radioligand competition binding to human α2BAR; settings: saturation binding
Sequence of human α2BAR (P18089 whole entry): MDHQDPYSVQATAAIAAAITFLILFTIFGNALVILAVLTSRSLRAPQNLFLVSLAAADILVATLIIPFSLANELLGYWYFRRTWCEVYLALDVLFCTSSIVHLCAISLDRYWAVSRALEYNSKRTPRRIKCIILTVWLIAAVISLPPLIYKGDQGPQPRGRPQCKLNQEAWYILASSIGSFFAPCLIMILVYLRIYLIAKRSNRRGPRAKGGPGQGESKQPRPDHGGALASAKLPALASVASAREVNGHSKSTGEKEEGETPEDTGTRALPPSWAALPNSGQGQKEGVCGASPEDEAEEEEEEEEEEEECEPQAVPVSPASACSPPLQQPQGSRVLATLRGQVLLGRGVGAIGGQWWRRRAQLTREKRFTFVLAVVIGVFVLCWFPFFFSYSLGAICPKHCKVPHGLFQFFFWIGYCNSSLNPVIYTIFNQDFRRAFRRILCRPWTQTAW

[11] = mean ± s.e.m., read-out: Ki for α2AAR
[12] = C57BL/6N ('9087, '7075, '4622), CD-1 (PS75), mouse, CSF, ip, I.P. 10 mg/kg, read-out: T ½ CSF (converted)
[13] = mouse, brain, ip, I.P. 10 mg/kg, read-out: T ½ Brain (converted)
[14] = mouse, plasma, ip, I.P. 10 mg/kg
[15] = mouse, plasma, ip, I.P. 10 mg/kg, read-out: T ½ Plasma (converted)
[16] = Gαi EC50, BRET biosensor, HEK293T, human α2AAR
[17] = C57BL/6N ('9087), C57BL/6 (PS75), mouse, plasma, iv, I.V. 10 mg/kg
[18] = C57BL/6N ('9087), C57BL/6 (PS75), mouse, plasma, po, P.O. 30 mg/kg

C1=C(c2ccc3c(c2)CC3)CNCC1 [Compound 4622, 5-(Bicyclo[4.2.0]octa-1,3,5-trien-3-yl)-1,2,3,6-tetrahydropyridine]
Ki (human α2AAR [1]; [11]): 12 ± 3.6 nM
Gi activity at F427^7.39 substitution (α2AAR F427^7.39 mutant): eliminated
half-life [2, 12]: 14.5 h
AUC Brain ([2]; I.P. 10 mg/kg): 1160000 ng·min/mL
AUC CSF ([2]; I.P. 10 mg/kg): 18400 ng·min/mL
Cmax Brain ([2]; I.P. 10 mg/kg): 16200 ng/mL
Cmax CSF ([2]; I.P. 10 mg/kg): 44.2 ng/mL
half-life [2, 13]: 0.88 h
AUC [2, 14]: 567 ng·h/mL
Cmax [2, 14]: 620 ng/mL
half-life [2, 15]: 1.01 h
EC50 (human α2AAR [3]; [16]): 9.7 ± 2.4 nM
Emax (human α2AAR [3]; read-out: Gαi Emax): 74 ± 4%
EC50 [4]: 45 nM
Emax ([4]; Gi recruitment, Tables 7-9, read-out: G protein Emax (%)): 76%
Emax (human α2AAR [5]; read-out: β-arrestin-2 Emax): < 5%
Motor impairment / sedation in rotarod test (mice [6]; equi-analgesic doses (DEX: higher doses)): slight motor impairment
Emax [7]: < 5%
Effect of atipamezole on the agonist's effect in SNI mice (SNI mice): reversed by atipamezole
Mechanical thresholds / anti-allodynic effect in SNI mice (SNI mice; systemic injection): exhibited anti-allodynic effects
Thermal latencies / anti-hyperalgesic effect in CFA model (CFA mice): exhibited anti-hyperalgesic effects

Clc1ccc2cccc(Nc3ccncc3)c2c1 [PS75, N-(7-Chloronaphthalen-1-yl)pyridin-4-amine x TFA]
Ki (human α2AAR [1]; mean ± SEM (Table 3), read-out: Ki): 8.2 ± 0.48 nM
Ki (human α2AAR [1]; [11]): 8.2 ± 0.48 nM
AUC [2, 17]: 3460 ng·h/mL
Cmax [2, 17]: 2590 ng/mL
half-life ([2]; C57BL/6N ('9087), C57BL/6 (PS75), mouse, plasma, iv, I.V. 10 mg/kg, read-out: T ½ Plasma (converted)): 1.64 h
bioavailability ([2]; C57BL/6N ('9087), C57BL/6 (PS75), mouse, plasma, oral, from I.V. 10 mg/kg and P.O. 30 mg/kg dosing): 102%
AUC [2, 18]: 10600 ng·h/mL
Cmax [2, 18]: 2390 ng/mL
half-life ([2]; C57BL/6N ('9087), C57BL/6 (PS75), mouse, plasma, po, P.O. 30 mg/kg, read-out: T ½ Plasma (converted)): 3.17 h
half-life [2, 12]: 2.55 h
AUC Brain ([2]; I.P. 10 mg/kg): 888000 ng·min/mL
AUC CSF ([2]; I.P. 10 mg/kg): 7790 ng·min/mL
Cmax Brain ([2]; I.P. 10 mg/kg): 9200 ng/mL
Cmax CSF ([2]; I.P. 10 mg/kg): 99.3 ng/mL
half-life [2, 13]: 1.07 h
AUC [2, 14]: 927 ng·h/mL
Cmax [2, 14]: 679 ng/mL
half-life [2, 15]: 0.73 h
EC50 (human α2AAR [3]; Gi EC50 ± SE, BRET biosensor, human α2AAR (Table 3)): 4.8 nM
EC50 (human α2AAR [3]; [16]): 4.8 nM
Emax (human α2AAR [3]; read-out: Gi Emax ± SEM): 82%
Emax (human α2AAR [3]; read-out: Gαi Emax): 82%
Fold increased Gi potency compared to ‘9087 (human α2AAR [3]; TFA): 13 fold and 11 fold
functional classification (agonist / weak agonist) ([4]; Gi recruitment, Table 6, result in words): agonist
EC50 ([4]; Gi recruitment, Table 6, read-out: EC50): 4.8 nM
Emax ([4]; Gi recruitment, Table 6, read-out: Emax (%)): 79%
Emax (human α2AAR [5]; read-out: β-Arr-2 Emax @ 0.1 mM): 15%
Emax at 100 µM (human α2AAR [5]; read-out: β-arrestin-2 Emax @ 0.1 mM): 15 ± 3%
Performance in rotarod test (mice [6]; doses up to 20 mg/kg): did not have an effect
Mechanical thresholds of naïve (uninjured) mice (naïve mice): did increase the mechanical thresholds
Disappearance of α2AAR from the plasma membrane (internalization) (human α2AAR [8]): no effect
Withdrawal latencies, tail flick (mice [9]): increased withdrawal latencies
analgesic in vivo (analgesia in vivo): analgesic in vivo
Effect of atipamezole on the agonist's effect in SNI mice (SNI mice; TFA): not significant reversal; also recorded: partially reversed
Mechanical thresholds / anti-allodynic effect in SNI mice (SNI mice; systemic injection): exhibited anti-allodynic effects
Reversal of mechanical hypersensitivity in SNI mice (SNI mice; systemic injection): completely reversed the mechanical hypersensitivity
Metabolic stability, compound remaining [10]: remain largely unmodified after 1 hour

COC1(C2=NCCN2)COc2ccccc2O1 (centres unmarked) [[^3H]RX82,1002]
Kd (α2CAR): 0.58 ± 0.11 nM
Kd (human α2AAR [1]; saturation binding): 0.54 ± 0.024 nM
Kd (murine α2AAR): 1.8 ± 0.61 nM
Kd (human α2BAR): 2.3 ± 0.52 nM
